Test results taken from ChEMBL document CHEMBL3727375, “Antiproliferative 1,2,3-thiadiazole compounds” (2007).
Activity calls are given as the source filed them. The rule behind the calls is not given here.

What was measured:
[1] = system: Chorioallantoic membrane; assay: Antiangiogenic activity in fertilized chicken egg chorioallantoic membrane assessed as inhibition of blood vessel growth at 50 uM incubated for 2 days by dissecting microscopy relative to control; type: functional, tissue-based; settings: Gallus gallus
[2] = Induction of apoptosis in rat IEC-18-13 cells assessed as apoptotic cells at 5 uM after 24 hrs by mitosensor dye-based fluorescence microscopy (reference value: 25%); type: functional
[3] = Induction of apoptosis in rat IEC-18-13 cells assessed as healthy cells at 5 uM after 24 hrs by mitosensor dye-based fluorescence microscopy (reference value: 75%); type: functional
[4] = system: Lewis lung carcinoma; assay: Antitumor activity against mouse LLC allografted in ip dosed mouse assessed as tumor growth inhibition administered daily; type: functional, organism-based

| SMILES | growth inhibition (GI) [1] [%] | Activity [2] [%] | Activity [3] [%] | TGI [4] |
| --- | --- | --- | --- | --- |
| NC(=O)c1nnsc1Nc1cccc2ccccc12 | 100 | – | – | – |
| NC(=O)c1nnsc1Nc1ccccc1 | – | 78 | 22 | Active |
